Like-named read-outs stand apart in the source and are kept apart here. Numbered stars: 1 amine (or outer) side, 2 acyl side, 3 side chain; on linkers, the order of the positions; unused ones are H or OH. Bridge positions count the residues as written; N and C are the ends. Square brackets hold non-standard residues; d marks the D form. Peptide text beside a SMILES is read from it. I, II: the chains in the order shown. Actinocin(9to1) = Cc1c2oc3c(C)ccc(C(=O)[*:1])c3nc-2c(C(=O)[*:2])c(N)c1=O; NMeV = CN[C@H](C(=O)O)C(C)C; Sar = CNCC(=O)O
Assays:
[1] = target: T1, human FXR (Homo sapiens, UniProt Q96RI1); experiment: FXR-bla reporter gene assay, agonist mode (qHTS); conditions: for FXR agonist activity: FXR-bla assay; for FXR agonist Efficacy: Table S3
T1 sequence (Q96RI1 with tags, fused parts or gaps limits assumed): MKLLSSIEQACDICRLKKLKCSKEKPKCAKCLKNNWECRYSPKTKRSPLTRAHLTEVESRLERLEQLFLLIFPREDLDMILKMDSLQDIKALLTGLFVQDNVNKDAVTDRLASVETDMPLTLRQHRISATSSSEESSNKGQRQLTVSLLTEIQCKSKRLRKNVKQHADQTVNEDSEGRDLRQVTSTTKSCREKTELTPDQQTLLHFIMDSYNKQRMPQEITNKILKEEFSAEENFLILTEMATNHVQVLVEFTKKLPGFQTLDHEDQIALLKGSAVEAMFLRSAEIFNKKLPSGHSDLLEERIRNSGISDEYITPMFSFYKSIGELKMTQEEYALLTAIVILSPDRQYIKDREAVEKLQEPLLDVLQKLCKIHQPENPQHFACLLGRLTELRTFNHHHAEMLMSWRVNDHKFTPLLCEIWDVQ

[2] = target: T1, human FXR; experiment: FXR-bla reporter gene assay, antagonist mode (CDCA-induced transactivation); conditions: for FXR antagonist activity: FXR-bla assay
[3] = system: FXR-UAS-bla HEK293T cells; experiment: Cell viability assay (CellTiter Glo) in the same well as FXR-bla
[4] = target: vitamin D receptor (VDR) (Homo sapiens, UniProt P11473); experiment: VDR-bla reporter gene assay (agonist and antagonist modes)
vitamin D receptor (VDR), sequence (P11473 with tags, fused parts or gaps limits assumed): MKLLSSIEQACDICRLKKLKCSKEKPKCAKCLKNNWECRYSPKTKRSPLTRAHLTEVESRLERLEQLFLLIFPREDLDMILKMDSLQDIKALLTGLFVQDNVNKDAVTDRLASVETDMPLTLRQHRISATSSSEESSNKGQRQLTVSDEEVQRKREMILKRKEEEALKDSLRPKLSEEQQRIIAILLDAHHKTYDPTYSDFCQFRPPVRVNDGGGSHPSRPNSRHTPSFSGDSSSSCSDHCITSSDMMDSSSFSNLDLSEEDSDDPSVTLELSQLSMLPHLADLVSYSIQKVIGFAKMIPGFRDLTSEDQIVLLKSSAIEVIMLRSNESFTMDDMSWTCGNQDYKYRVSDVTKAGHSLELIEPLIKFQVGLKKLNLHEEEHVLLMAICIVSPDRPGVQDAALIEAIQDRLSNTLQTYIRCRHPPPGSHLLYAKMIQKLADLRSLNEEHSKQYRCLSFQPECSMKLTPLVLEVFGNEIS

[5] = IC50, FXR-bla antagonist mode, primary screening, CDCA-induced
[6] = Table S1, primary screening, 50 µM CDCA

Cc1c(COC(=O)[C@@H]2[C@H](/C=C(\Cl)C(F)(F)F)C2(C)C)cccc1-c1ccccc1 (racemic) [Bifenthrin]
FXR agonist mode EC50 ([1]; Table S1, primary screening): Inactive | FXR antagonist mode Efficacy [2]: 50 ± 16 | IC50 ([2]; FXR antagonist mode IC50): 11.3 ± 4.58 µM | FXR antagonist activity ([2]; CDCA-induced): highly selective FXR antagonists | Cytotoxicity IC50 ([3]; Table S1, primary screening): Inactive

Cc1c(F)c(F)c(COC(=O)[C@@H]2[C@H](/C=C(\Cl)C(F)(F)F)C2(C)C)c(F)c1F (racemic) [Tefluthrin]
FXR agonist mode EC50 ([1]; Table S1, primary screening): Inactive | FXR antagonist mode Efficacy [2]: 46 ± 7 | IC50 ([2]; FXR antagonist mode IC50): 12.4 ± 2.01 µM | Cytotoxicity IC50 ([3]; Table S1, primary screening): Inactive

C[C@]12CC[C@@H]3c4ccc(O)cc4CC[C@H]3[C@@H]1CC[C@H]2O [17α-Estradiol]
Cytotoxicity IC50 ([3]; Table S1, primary screening): Inactive

C[C@]12CC[C@@H]3c4ccc(O)cc4CC[C@H]3[C@@H]1CC[C@@H]2O [17β-Estradiol]
Cytotoxicity IC50 ([3]; Table S1, primary screening): Inactive

Cc1c2oc3c(C)ccc(C(=O)N[C@@H]4C(=O)N[C@H](C(C)C)C(=O)N5CCC[C@H]5C(=O)N(C)CC(=O)N(C)[C@@H](C(C)C)C(=O)O[C@@H]4C)c3nc-2c(C(=O)N[C@@H]2C(=O)N[C@H](C(C)C)C(=O)N3CCC[C@H]3C(=O)N(C)CC(=O)N(C)[C@@H](C(C)C)C(=O)O[C@@H]2C)c(N)c1=O [Actinomycin D] (I: T[dV]P[Sar][NMeV] / II: T[dV]P[Sar][NMeV]; ester I:1-I:C, II:1-II:C; linker I:N-II:N via Actinocin(9to1))
Cell viability IC50 [3]: Inactive

CCC[S+]([O-])c1ccc2[nH]c(NC(=O)OC)nc2c1 (centres unmarked) [Albendazole oxide]
FXR agonist mode EC50 ([1]; Table S1, primary screening): Inactive | FXR antagonist mode Efficacy [2]: 35 ± 16% | IC50 ([2]; FXR antagonist mode IC50): 27.9 ± 5.02 µM | Cytotoxicity IC50 ([3]; Table S1, primary screening): Inactive

O=c1cc(-c2ccc(O)cc2)oc2cc(O)cc(O)c12 [Apigenin]
Cytotoxicity IC50 ([3]; Table S1, primary screening): Inactive

CCOC(=O)[C@H](CCc1ccccc1)N[C@H]1CCc2ccccc2N(CC(=O)O)C1=O [Benazepril]
Cytotoxicity Efficacy ([3]; Table S3): 87 ± 27%

COC(=O)C1=C(C)NC(C)=C(C(=O)OC2CCCN(Cc3ccccc3)C2)C1c1cccc([N+](=O)[O-])c1 (centres unmarked) [Benidipine]
FXR agonist activity [1]: weak FXR agonist activity | FXR agonist mode EC50 ([1]; Table S1, primary screening): Inactive | IC50 [2, 5]: 24.8 µM | FXR antagonist mode Efficacy [2, 6]: 84 ± 17% | FXR antagonist Efficacy ([2]; Table S3, 50 µM CDCA): 84 ± 17% | Cytotoxicity IC50 ([3]; Table S1, primary screening): Inactive

CCCCNC(=O)n1c(NC(=O)OC)nc2ccccc21 [Benomyl]
FXR agonist mode EC50 ([1]; Table S1, primary screening): Inactive | FXR antagonist mode Efficacy [2]: 21 ± 18% | IC50 [2, 5]: 18.3 µM | Cytotoxicity IC50 ([3]; Table S1, primary screening): Inactive

C[C@H](CCC(=O)O)[C@H]1CC[C@H]2[C@@H]3[C@H](O)C[C@@H]4C[C@H](O)CC[C@]4(C)[C@H]3CC[C@]12C [CDCA, Chenodeoxycholic acid]
Cytotoxicity Efficacy ([3]; Table S1, primary screening): 50 ± 1%

COCCOC(=O)C1=C(C)NC(C)=C(C(=O)OC/C=C/c2ccccc2)C1c1cccc([N+](=O)[O-])c1 (centres unmarked) [Cilnidipine]
EC50 [1]: 8.08 ± 3.4 µM | FXR agonist activity [1]: FXR agonists | FXR agonist mode Efficacy ([1]; Table S1, primary screening, CDCA 100%): 64 ± 7% | FXR agonist Efficacy [1]: 64 ± 7% | IC50 [2]: 31.1 ± 2.1 µM | FXR antagonist mode Efficacy [2, 6]: 64 ± 12% | FXR antagonist Efficacy ([2]; Table S3, 50 µM CDCA): 64 ± 12% | Cytotoxicity IC50 ([3]; Table S1, primary screening): Inactive

CC1(C)C(/C=C(\Cl)C(F)(F)F)C1C(=O)OC(C#N)c1cccc(Oc2ccccc2)c1 (centres unmarked) [Cyhalothrin]
FXR agonist mode EC50 ([1]; Table S1, primary screening): Inactive | FXR antagonist mode Efficacy [2]: 50 ± 15 | IC50 ([2]; FXR antagonist mode IC50): 21.3 ± 13.1 µM | VDR activity [4]: antagonist activity | Cytotoxicity IC50 ([3]; Table S1, primary screening): Inactive

O=C(Nc1ccccc1)c1ccccc1SSc1ccccc1C(=O)Nc1ccccc1 [DTBBA, 2,2-Dithiobisbenzanilide]
FXR agonist mode Efficacy [1]: 31 ± 13 | EC50 ([1]; read-out: FXR agonist mode EC50, Table S1, primary screening): 24.6 ± 15.3 µM | FXR antagonist mode Efficacy [2]: 51 ± 17 | IC50 ([2]; read-out: FXR antagonist mode IC50): 18 ± 8.46 µM

CC(=O)O[C@@]12CO[C@@H]1C[C@H](O)[C@@]1(C)C(=O)[C@H](O)C3=C(C)[C@@H](OC(=O)[C@H](O)[C@@H](NC(=O)OC(C)(C)C)c4ccccc4)C[C@@](O)([C@@H](OC(=O)c4ccccc4)[C@H]21)C3(C)C [Docetaxel]
FXR agonist mode EC50 ([1]; Table S1, primary screening): Inactive | IC50 [2]: 0.008 ± 0.005 µM | FXR antagonist activity ([2]; CDCA-induced): antagonistic effects | FXR antagonist mode Efficacy [2, 6]: 35 ± 4% | Cytotoxicity IC50 ([3]; Table S1, primary screening): Inactive

CO[C@H]1C[C@H](O[C@H]2[C@H](C)O[C@@H](O[C@@H]3/C(C)=C/C[C@@H]4C[C@@H](C[C@]5(C=C[C@H](C)[C@@H](C6CCCCC6)O5)O4)OC(=O)[C@@H]4C=C(C)[C@@H](O)[C@H]5OC/C(=C\C=C\[C@@H]3C)[C@]54O)C[C@@H]2OC)O[C@@H](C)[C@@H]1O [Doramectin]
FXR agonist mode Efficacy [1]: 62 ± 9% | FXR agonist Efficacy [1]: 62 ± 9% | FXR antagonist Efficacy [2]: 152 ± 10% | FXR antagonist mode Efficacy [2]: 152 ± 10% | Cytotoxicity Efficacy ([3]; Table S1, primary screening): 116 ± 6% | Cytotoxicity Efficacy ([3]; Table S3): 116 ± 6% | IC50 ([3]; read-out: Cytotoxicity IC50, Table S1, primary screening): 11 µM

COc1cccc2c1C(=O)c1c(O)c3c(c(O)c1C2=O)C[C@@](O)(C(=O)CO)C[C@@H]3O[C@H]1C[C@H](N)[C@@H](O)[C@H](C)O1 [Epirubicin]
Cell viability IC50 ([3]; Table 1, mean ± SD of 3 experiments): Inactive

CCOc1ccc2nc3cc(N)ccc3c(N)c2c1 [Ethacridine]
EC50 [1]: 21.4 ± 12 µM | FXR agonist Efficacy [1]: 31 ± 11% | FXR antagonist Efficacy ([2]; Table S3, 50 µM CDCA): 75 ± 17%

Reference: paper PMC4894417, “Quantitative High-Throughput Profiling of Environmental Chemicals and Drugs that Modulate Farnesoid X Receptor” (Scientific Reports, 2014)
